# In ChEMBL document CHEMBL3045323, “Synthesis, anti-inflammatory and anticancer activity evaluation of some mono- and bis-Schiffs bases” (2012):
# Starred links: 1 amine or outer side, 2 acyl side, 3 side chain; linkers in the order of their positions; H or OH if unused. Positions of bridges follow the written chain, without caps; N, C: chain ends. Non-standard residues stand in square brackets, D forms with d. Residues, ends and D or L forms follow the SMILES beside them. Chains are numbered I, II in the order given. Actinocin(1to9) = Cc1c2oc3c(C)ccc(C(=O)[*:2])c3nc-2c(C(=O)[*:1])c(N)c1=O; NMeV = CN[C@H](C(=O)O)C(C)C; Sar = CNCC(=O)O
# Key:
# Type in all cases: functional
# NCI-H522 = experiment: Cytotoxicity against Homo sapiens (human) NCI-H522 cells assessed as growth inhibition at 1 x 10^-5 M after 48 hr by SRB assay; conditions: NCI-H522, 48 h, read-out: GI
# HepG2 = experiment: Cytotoxicity against Homo sapiens (human) HepG2 cells assessed as growth inhibition at 1 x 10^-5 M after 48 hr by SRB assay; conditions: HepG2, 48 h, read-out: GI
# T47D = experiment: Cytotoxicity against Homo sapiens (human) T47D cells assessed as growth inhibition at 1 x 10^-5 M after 48 hr by SRB assay; conditions: read-out: GI
# HCT-15 = experiment: Cytotoxicity against Homo sapiens (human) HCT15 cells assessed as growth inhibition at 1 x 10^-5 M after 48 hr by SRB assay; conditions: HCT-15, 48 h, read-out: GI
# PA-1 = experiment: Cytotoxicity against Homo sapiens (human) PA1 cells assessed as growth inhibition at 1 x 10^-5 M after 48 hr by SRB assay; conditions: PA-1, 48 h, read-out: GI
# Rattus norvegicus = experiment: Anti-inflammatory activity inRattus norvegicus albino (rat) assessed as inhibition of carrageenan-induced paw edema at 50 mg/kg, po administered for 30 min followed by carrageenan challenge measured after 1 to 3 hr relative to control
SMILES,inhibition of growth at 10 µM (NCI-H522) [%],inhibition of growth at 10 µM (HepG2) [%],inhibition of growth at 10 µM (T47D) [%],inhibition of growth at 10 µM (HCT-15) [%],inhibition of growth at 10 µM (PA-1) [%],inhibition in vivo at 50 mg/kg (Rattus norvegicus) [%]
COc1cc(/C=N/CC2CCCO2)ccc1O (stereo unspecified),17,1,25,24,13,14
COc1cc(/C=N/CCCn2ccnc2)ccc1O,22,11,15,1,16,0
COc1cc(/C=N/CCN2CCNCC2)ccc1O,25,30,25,4,39,18
COc1ccc(OC)c(/C=N/CC2CCCO2)c1 (stereo unspecified),15,25,33,0,38,16
COc1ccc(OC)c(/C=N/CCCn2ccnc2)c1,24,24,29,3,25,0
COc1ccc(OC)c(/C=N/CCN2CCNCC2)c1,49,22,28,4,16,21
C(=N\CC1CCCO1)/c1ccco1 (stereo unspecified),15,20,12,4,16,26
C(=N\CCCn1ccnc1)/c1ccco1,29,1,16,1,13,28
C(=N\CCN1CCNCC1)/c1ccco1,19,18,21,5,35,22
COc1cc(/C=N/c2n[nH]c(/N=C/c3ccc(O)c(OC)c3)n2)ccc1O,9,14,38,4,40,26
COc1cc(/C=N/CCCN2CCN(CCC/N=C/c3ccc(O)c(OC)c3)CC2)ccc1O,1,3,18,5,51,25
COc1ccc(OC)c(/C=N/c2n[nH]c(/N=C/c3cc(OC)ccc3OC)n2)c1,15,10,41,5,53,22
COc1ccc(OC)c(/C=N/CCCN2CCN(CCC/N=C/c3cc(OC)ccc3OC)CC2)c1,13,8,24,7,62,20
C(=N\c1n[nH]c(/N=C/c2ccco2)n1)/c1ccco1,26,25,30,3,48,11
C(=N\CCCN1CCN(CCC/N=C/c2ccco2)CC1)/c1ccco1,5,10,9,6,43,30
C[C@@H]1C[C@@H]([C@H](O)CC2CC(=O)NC(=O)C2)C(=O)[C@@H](C)C1 [CYCLOHEXIMIDE],20,14,30,5,82,
O=P1(N(CCCl)CCCl)NCCCO1 (stereo unspecified) [CYCLOPHOSPHAMIDE ANHYDROUS],7,24,36,7,21,
"Cc1c2oc3c(C)ccc(C(=O)N[C@@H]4C(=O)N[C@H](C(C)C)C(=O)N5CCC[C@H]5C(=O)N(C)CC(=O)N(C)[C@@H](C(C)C)C(=O)O[C@@H]4C)c3nc-2c(C(=O)N[C@@H]2C(=O)N[C@H](C(C)C)C(=O)N3CCC[C@H]3C(=O)N(C)CC(=O)N(C)[C@@H](C(C)C)C(=O)O[C@@H]2C)c(N)c1=O [DACTINOMYCIN] (I: T[dV]P[Sar][NMeV] / II: T[dV]P[Sar][NMeV]; ester I:1-I:C, II:1-II:C; linker I:N-II:N via Actinocin(1to9))",59,42,21,49,93,
O=c1[nH]cc(F)c(=O)[nH]1 [FLUOROURACIL],51,33,22,21,27,
CC(C)Cc1ccc(C(C)C(=O)O)cc1 (stereo unspecified) [IBUPROFEN],,,,,,39
